Peptide text beside a SMILES is read from it. * marks the point of attachment. FITC = O=C1OC2(c3ccc(O)cc3Oc3cc(O)ccc32)c2ccc(NC(=S)*)cc21; Ahx = NCCCCCC(=O)O
What was measured:
MDA-MB-231 cells = assay: Cellular uptake of FITC-stapled peptides (plate-reader fluorescence); settings: MDA-MB-231, 5 µM FITC-peptide, 4 h
Protocol: MDA-MB-231 cells were seeded in black 96-well plate in 200 μL of their corresponding medium. After 24 h of cell growth, cells were treated with 5 µM concentration of FITC-stapled peptides for 4 h. Total fluorescence (TF) was measured using CLARIOstar® High Performance Monochromator Multimode Microplate Reader (BMG Labtech, Ortenberg, Germany) at excitation/emission of 483-14/530-30 nm. Cells were washed three times with PBS and remaining fluorescence (RF) was measured using the same conditions. The percentage of uptake values were presented as relative mean fluorescence and normalized with respect to Penetratin used as a standard control and set at 100%.

[1] = Circular dichroism, determination of helical content; assay type: physicochemical; settings: water/TFE (95/5)
Protocol: Circular dichroism experiments were carried out using a Jasco J815 spectropolarimeter. Spectra (Jasco, Easton, MD, USA) were typically recorded with 100 μM of peptides dissolved in a water/TFE mixture (95/5), pH 7, using a 1 mm pathlength CD cuvette at 20 °C, over a wavelength range of 190–260 nm. The peptide concentrations were normalized measuring the OD at 490 nm considering a molar coefficient extinction (ε490) for the FITC of 76,900 cm^−1 M^−1. Continuous scanning mode was used, with a response of 1.0 s with 0.1 nm steps and a bandwidth of 2 nm. The signal to noise ratio was improved by acquiring each spectrum over an average of two scans. Baseline was corrected by subtracting the background from the sample spectrum. Alpha helical content was determined using the following equation: % Helix = ([θ])obs × 100)/(−39,500 × (1 − 2.57/n), where ([θ])obs is the mean residue ellipticity at 222 nm and n the number of peptide bonds.

ability to enter cells (uptake, in words) (MDA-MB-231 cells): almost not able to enter cells
α Helix (%) ([1]; CD, 100 μM peptide, pH 7, 20 °C, from mean residue ellipticity at 222 nm): 5%
CD profile (folding) ([1]; far-UV CD, 20 °C): remained partially unfolded
Structure (SMILES): CC[C@H](C)[C@H](NC(=O)[C@H](C)NC(=O)[C@H](CCCNC(=N)N)NC(=O)[C@H](CCCNC(=N)N)NC(=O)CCCCCNC(=S)Nc1ccc2c(c1)C(=O)OC21c2ccc(O)cc2Oc2cc(O)ccc21)C(=O)N[C@H](C(=O)N[C@H](C(=O)N[C@@H](C)C(=O)N[C@@H](CCCNC(=N)N)C(=O)N[C@@H](CCCNC(=N)N)C(=O)N[C@@H](CS)C(N)=O)[C@@H](C)CC)[C@@H](C)CC [JMV6579] ({FITC-Ahx}-RRAIIIARRC-NH2)

— publication PMC7760004, “Hydrocarbon-Stapled Peptide Based-Nanoparticles for siRNA Delivery” (Nanomaterials, 2020)
